In assay [1] the test system is Mus musculus. The experiment in a line: Induction of intestinal homeostasis in SCID/NOD mouse xenografted with human Jurkat cells assessed as decrease in disordered arrangement of epithelial cells in the colon at 40 mg/kg, po administered once a day for 3 weeks by AB-PAS staining based microscopic analysis. In kind it is functional, organism-based. To be noted: dose 40.0 mg/kg/day. On the technique in general: Xenograft models place foreign cells or tissue in a host animal.

For assay [2], the system named is Mus musculus. The assay can be described thus: Inhibition of spleen infiltration in SCID/NOD mouse xenografted with human Jurkat cells assessed as reduction in spleen index at 40 mg/kg, po administered once a day for 3 weeks. In kind it is functional, organism-based. To be noted: dose 40.0 mg/kg/day.
Assay [3] has as its system Mus musculus. The experiment in a line: Induction of immune response in SCID/NOD mouse xenografted with human Jurkat cells assessed as increase in IL-2 level in spleen at 40 mg/kg, po administered once a day for 3 weeks by ELISA reader method. In kind it is functional, organism-based. The conditions noted are these: dose 40.0 mg/kg/day.
The subject of assay [4] is Mus musculus. The experiment in a line: Inhibition of intestinal inflammation in SCID/NOD mouse xenografted with human Jurkat cells assessed as increase in IL-10 level in colon at 40 mg/kg, po administered once a day for 3 weeks by ELISA. In kind it is functional, organism-based. To be noted: dose 40.0 mg/kg/day.
Assay [5] relates to Mus musculus. The experiment in a line: Inhibition of spleen infiltration in SCID/NOD mouse xenografted with human Jurkat cells assessed as reduction in spleen enlargement at 40 mg/kg, po administered once a day for 3 weeks. The conditions noted are these: dose 40.0 mg/kg/day. The assay is classed as functional, organism-based.
Assay [6] concerns Mus musculus. The experiment in a line: Induction of intestinal homeostasis in SCID/NOD mouse xenografted with human Jurkat cells assessed as increase in Reg3b expression in colon at 40 mg/kg, po administered once a day for 3 weeks by Western blot analysis. The assay is classed as functional, organism-based. The conditions noted are these: dose 40.0 mg/kg/day.
The subject of assay [7] is Mus musculus. The experiment in a line: Inhibition of intestinal inflammation in SCID/NOD mouse xenografted with human Jurkat cells assessed as increase in TGFbeta level in colon at 40 mg/kg, po administered once a day for 3 weeks by ELISA. The assay is classed as functional, organism-based. To be noted: dose 40.0 mg/kg/day.
Assay [8] deals with Mus musculus. The experiment in a line: Induction of intestinal homeostasis in SCID/NOD mouse xenografted with human Jurkat cells assessed as upregulation of claudin-1 mRNA levels in colon at 40 mg/kg, po administered once a day for 3 weeks by real time RT-PCR analysis. In kind it is functional, organism-based. To be noted: dose 40.0 mg/kg/day.
For assay [9], the system named is Jurkat. The assay can be described thus: Antitumour activity against human Jurkat cells xenografted in SCID/NOD mouse assessed as reduction of inactivity and messy hair at 40 mg/kg, po administered once a day for 3 weeks. In kind it is functional, organism-based. To be noted: dose 40.0 mg/kg/day.
Assay [10] has as its system Mus musculus. The experiment in a line: In vivo inhibition of PI3K phosphorylation at Ser249 residue in spleen of SCID/NOD mouse xenografted with human Jurkat cells at 40 mg/kg, po administered once a day for 3 weeks by Western blot method. The assay is classed as functional, organism-based. The conditions noted are these: dose 40.0 mg/kg/day.
For assay [11], the system named is Mus musculus. The assay can be described thus: Induction of intestinal homeostasis in SCID/NOD mouse xenografted with human Jurkat cells assessed as upregulation of ZO-1 mRNA levels in colon at 40 mg/kg, po administered once a day for 3 weeks by real time RT-PCR analysis. To be noted: dose 40.0 mg/kg/day. The assay is classed as functional, organism-based.
Assay [12] deals with Mus musculus. The assay can be described thus: Induction of intestinal homeostasis in SCID/NOD mouse xenografted with human Jurkat cells assessed as upregulation of secretion of IgA from B cells in colon at 40 mg/kg, po administered once a day for 3 weeks by western blot analysis. The assay is classed as functional, organism-based. To be noted: dose 40.0 mg/kg/day.
Assay [13] concerns Jurkat. The experiment in a line: Antitumour activity against human Jurkat cells xenografted in SCID/NOD mouse assessed as decrease in expression of CD3 in bone marrow at 40 mg/kg, po administered once a day for 3 weeks by immunohistochemical staining method. In kind it is functional, organism-based. To be noted: dose 40.0 mg/kg/day.
The subject of assay [14] is Mus musculus. The assay can be described thus: Inhibition of intestinal dysbiosis in SCID/NOD mouse xenografted with human Jurkat cells assessed as increase in abundance of Akkermansia in cecum at 40 mg/kg, po administered once a day for 3 weeks by multiplexed 16S rRNA gene sequencing analysis. In kind it is functional, organism-based. To be noted: dose 40.0 mg/kg/day.

In assay [15] the test system is Mus musculus. The assay can be described thus: Inhibition of intestinal dysbiosis in SCID/NOD mouse xenografted with human Jurkat cells assessed as increase in abundance of Bacteroidetes in cecum at 40 mg/kg, po administered once a day for 3 weeks by multiplexed 16S rRNA gene sequencing analysis. The assay is classed as functional, organism-based. To be noted: dose 40.0 mg/kg/day.

Assay [16] has as its system Mus musculus. The assay can be described thus: Inhibition of intestinal dysbiosis in SCID/NOD mouse xenografted with human Jurkat cells assessed as decrease in abundance of Proteobacteria in cecum at 40 mg/kg, po administered once a day for 3 weeks by multiplexed 16S rRNA gene sequencing analysis. The assay is classed as functional, organism-based. The conditions noted are these: dose 40.0 mg/kg/day.

Assay [17] deals with Mus musculus. The experiment in a line: Inhibition of spleen infiltration in SCID/NOD mouse xenografted with human Jurkat cells assessed as decrease in CD3 expression in spleen at 40 mg/kg, po once a day for 3 weeks by immunohistochemical staining method. The conditions noted are these: dose 40.0 mg/kg/day. In kind it is functional, organism-based.
The subject of assay [18] is Mus musculus. The experiment in a line: Induction of intestinal homeostasis in SCID/NOD mouse xenografted with human Jurkat cells assessed as reduction in crypt depth in colon at 40 mg/kg, po administered once a day for 3 weeks by AB-PAS staining based microscopic analysis. The assay is classed as functional, organism-based. To be noted: dose 40.0 mg/kg/day.
Assay [19] relates to Mus musculus. The assay can be described thus: Inhibition of spleen infiltration in SCID/NOD mouse xenografted with human Jurkat cells assessed as decrease in CD45 expression in spleen at 40 mg/kg, po once a day for 3 weeks by immunohistochemical staining method. To be noted: dose 40.0 mg/kg/day. The assay is classed as functional, organism-based.
The test system of assay [20] is Jurkat. The experiment in a line: Antitumour activity against human Jurkat cells xenografted in SCID/NOD mouse assessed as proportion of CD3-positive cells in peripheral blood at 40 mg/kg, po administered once a day for 3 weeks by immunophenotyping based flow cytometry method (reference value: 18.81%). The assay is classed as functional. The conditions noted are these: dose 40 mg/kg/day.

For assay [21], the system named is Jurkat. The experiment in a line: Antitumour activity against human Jurkat cells xenografted in SCID/NOD mouse assessed as proportion of CD45-positive cells in peripheral blood at 40 mg/kg, po administered once a day for 3 weeks by immunophenotyping based flow cytometry method (reference value: 4.88%). The assay is classed as functional. To be noted: dose 40 mg/kg/day.

The subject of assay [22] is Mus musculus. The experiment in a line: Induction of intestinal homeostasis in SCID/NOD mouse xenografted with human Jurkat cells assessed as decrease in enlarged colon tissue at 40 mg/kg, po administered once a day for 3 weeks by AB-PAS staining based microscopic analysis. In kind it is functional, organism-based. To be noted: dose 40.0 mg/kg/day.
Assay [23] deals with Mus musculus. The experiment in a line: Inhibition of intestinal dysbiosis in SCID/NOD mouse xenografted with human Jurkat cells assessed as decrease in abundance of parabacteroides in cecum at 40 mg/kg, po administered once a day for 3 weeks by multiplexed 16S rRNA gene sequencing analysis. In kind it is functional, organism-based. The conditions noted are these: dose 40.0 mg/kg/day.

Assay [24] concerns Mus musculus. The assay can be described thus: Inhibition of intestinal dysbiosis in SCID/NOD mouse xenografted with human Jurkat cells assessed as increase in abundance of Lachnospiraceae_ NK4A136_group in cecum at 40 mg/kg, po administered once a day for 3 weeks by multiplexed 16S rRNA gene sequencing analysis. In kind it is functional, organism-based. The conditions noted are these: dose 40.0 mg/kg/day.

The source made the active and inactive calls. The rule behind the calls is not given here.

Turning to `CC(C)=CCC[C@](C)(O)[C@H]1CC[C@]2(C)[C@@H]1[C@H](O)C[C@@H]1[C@@]3(C)CC[C@H](O[C@@H]4O[C@H](CO)[C@@H](O)[C@H](O)[C@H]4O)C(C)(C)[C@@H]3CC[C@]12C` [GINSENOSIDE RH2], the outcome in assay [1], in [3], in assay [6], in assay [8], in [9] and in assay [11] was Active. Also, the result in [12], in assay [13], in [18] and in assay [22] was Active. Besides, the inhibition result in assay [2], in assay [4], in assay [5], in [7], in [10] and in assay [14] was “Active” throughout. Moreover, the inhibition entry in assay [15], in assay [16], in assay [17], in assay [19], in assay [23] and in assay [24] was “Active” throughout. For the same compound, the Activity in assay [20] amounted to 5.78%; in assay [21] it was 1.28%.
